# Laboratory results published in US5536723A, “S-nitroso derivatives of hydrazinoacetic acids, 1-[(acylthio and (mercapto)-1-oxoalkyl]-1,2,34-Tetrahydroquinoline-2-carboxylic acids and alanyl prolines and isoquinolines” (Brigham & Women's Hospital, priority 1994, dated 1996).
# Peptide text beside a SMILES is read from it.
# What was measured:
# [1] = test system: soluble guanylate cyclase; conditions: Ignarro 1980; cited from earlier work
# [2] = test system: guanylate cyclase in arterial smooth muscle; conditions: Horowitz 1983; cited from earlier work
# [3] = arterial pressure in the anesthetized rabbit; assay type: in vivo; conditions: 1 mM solution infused in an ear vein, 0.02 to 2.2 ml/min
# Method: A 1 mM solution of S-nitrosocaptopril was infused in an ear vein of the rabbit at rates from 0.02 to 2.2 ml/min and the phasic and mean arterial pressure recorded in the femoral artery.
# [4] = test system: bovine femoral artery, response to bradykinin; assay: response of the bovine femoral artery to bradykinin
# Method: (§1) Blood Vessel Preparation. Bovine coronary or femoral arteries were obtained from an abattoir immediately after sacrifice of two- to four-week-old calves. Immediately after removal, the vessel was placed in ice-cold physiologic salt solution (PSS) containing 118.3 mM NaCl, 4.7 mM KCl, 2.5 mM CaCl2, 1.2 mM MgSO4, 1.2 mM KH2 PO4, 25.0 mM NaHCO3, 11.1 mM glucose, and 0.026 mM calcium disodium (ethylenedinitrilo)-tetraacetate. The vessels were then cleaned of adventitial tissue and cut into rings of approximately 5 mm lengths. When called for by the protocol, endothelium was removed from a ring by gently rubbing the luminal surface with a watchmaker's forceps. Vascular rings with intact endothelium were then suspended in organ chambers containing 25 ml of PSS at 37° aerated with 95% O2 -5% CO2. The rings were connected to force transducers (Grass FT03C, Quincy, Mass.) and changes in isometric force recorded continuously (Grass Polygraph Model 79B) over a period of 90 minutes. The optimal length-tension relationship was determined for each ring by observing the response to 10^-6 M norepinephrine after increments in tension of 0.5 gm. The functional integrity of the endothelium was assessed by contracting the vessel with 10^-6 M norepinephrine and then observing the response to 3×10^-7 M acetylcholine chloride.
# In the bovine femoral artery contracted with a concentration of norepinephrine inducing a half-maximal response, bradykinin induced a biphasic response.
# platelet aggregation = conditions: Loscalzo 1985; cited from earlier work
# bovine femoral artery = assay: relaxation of isolated bovine femoral artery rings contracted with norepinephrine; conditions: norepinephrine-contracted; FIG. 2
# Method: FIG. 2 depicts a graph showing the effect of S-nitrosocaptopril on the contraction of bovine femoral arteries to norepinephrine.
# as §1
# Vascular ring segments with intact endothelium were […] contracted with a concentration of norepinephrine inducing a half-maximal response. After a stable contraction had been achieved, the tissue was exposed to increasing concentrations of S-nitrosocaptopril in cumulative half-log increments. […] The apparent IC50 is approximately 1 μM.
# platelets = assay: platelet aggregation in PRP induced by ADP; assay type: cell-based, human; conditions: 11 μM ADP
# Method: FIG. 7 depicts a graph showing the effect of S-nitrosocaptopril on platelet aggregation. Platelets in PRP were incubated with S-nitrosocaptopril over a range of concentrations for three minutes, after which ADP was added to a final concentration of 11 uM. The maximal rate of aggregation was measured and plotted as a percentage of that observed in the absence of S-nitrosocaptopril. Each point represents the mean ±SEM of five experiments each performed in duplicate.
# Platelets. Volunteers who had not ingested acetylsalicylic acid for at least ten days provided venous blood within one hour of use. […] Platelet counts were determined using a Coulter counter (Model ZM; Coulter Electronics, Hialeah, Fla.) and adjusted with platelet-poor plasma (PPP) to 1.5×10^8 platelets/ml prior to use.
# Platelet Aggregation. Platelet aggregation was monitored using a standard nephelometric technique (Born and Cross, J. Physiol (London) 168:178-195 (1963)) in which PRP was incubated at 37° with a final concentration of 11 μM ADP and stirred at 900 rpm in a Payton dual channel aggregometer (Payton Associates, Inc., Buffalo, N.Y.). Aggregation was quantitated by measuring either the maximal rate of change of light transmittance or the extent of change of light transmittance. […]
# [5] = test system: bovine femoral artery, contraction to angiotensin I; assay: contraction of the bovine femoral artery to angiotensin I
# Method: The data are expressed as a percentage of the maximal response to norepinephrine (10^-6 M) and are shown as mean ±SEM in each group (n=7).
# as §1
smiles,measurement,setting,value
NC(CSN=O)C(=O)O (stereo not shown) [S-nitrosothiol of cysteine],activation of soluble guanylate cyclase (in words),[1],capable of activating soluble guanylate cyclase
same,activation of guanylate cyclase in arterial smooth muscle (in words),[2],potent activators of guanylate cyclase
N[C@@H](CCC(=O)N[C@@H](CSN=O)C(=O)NCC(=O)O)C(=O)O [S-nitrosothiol of glutathione],activation of soluble guanylate cyclase (in words),[1],capable of activating soluble guanylate cyclase
same,activation of guanylate cyclase in arterial smooth muscle (in words),[2],potent activators of guanylate cyclase
O=N[O-].[Na+] [NaNO2],effect on blood pressure (in words),[3],no effect on blood pressure
O=C1O[C@H]([C@@H](O)CO)C(O)=C1O [Ascorbate],activation of guanylate cyclase in arterial smooth muscle (in words),[2],totally ineffective
NC(N)=NCCC[C@H](NC(=O)[C@H](Cc1ccccc1)NC(=O)[C@@H]1CCCN1C(=O)[C@H](CO)NC(=O)[C@H](Cc1ccccc1)NC(=O)CNC(=O)[C@@H]1CCCN1C(=O)[C@@H]1CCCN1C(=O)[C@@H](N)CCCN=C(N)N)C(=O)O [bradykinin] (H-RPPGFSPFR-OH),response to bradykinin at higher concentrations (in words),"[4]; norepinephrine-contracted, higher concentrations",increase in tension which was not affected by removal of the endothelium
same,response to bradykinin at lower concentrations (in words),"[4]; norepinephrine-contracted, lower concentrations",relaxations that were abolished by removal of the endothelium
CC(=O)N[C@@H](CSN=O)C(=O)O [S-nitroso-N-acetyl cysteine],inhibition of platelet aggregation (in words),platelet aggregation,extremely potent inhibitor of platelet aggregation
"C[C@H](CS)C(=O)N1CCCC1C(=O)O (stereo in doubt) [captopril, D-3-mercapto-2-methylpropanoyl-L-proline]",relaxation response (in words),bovine femoral artery,no relaxation response
same,inhibitory effect on platelet aggregation (in words),platelets,no inhibitory effect
same,effect on blood pressure (in words),[3],no effect on blood pressure
same,"inhibition of contractions to angiotensin I, S-nitrosocaptopril versus captopril (in words)",[5],equally inhibited contractions to angiotensin I
same,effect on the response to bradykinin (in words),[4]; 10^-6 M,Neither response to bradykinin was affected
CC(C)(SN=O)C(N)C(=O)O (stereo not shown) [S-nitrosothiol of penicillamine],activation of soluble guanylate cyclase (in words),[1],capable of activating soluble guanylate cyclase
same,activation of guanylate cyclase in arterial smooth muscle (in words),[2],potent activators of guanylate cyclase
